This is an account of results in patent publication US20100168129A1, “DRUGS WITH ANTICHOLESTATIC ACTIVITY” (priority 2007, published 2010).

Where two headings read alike, the source gives them in different places.

In data set [1] the target is T1, human receptor PXR (Homo sapiens, UniProt O75469).
T1 sequence (O75469 1-434): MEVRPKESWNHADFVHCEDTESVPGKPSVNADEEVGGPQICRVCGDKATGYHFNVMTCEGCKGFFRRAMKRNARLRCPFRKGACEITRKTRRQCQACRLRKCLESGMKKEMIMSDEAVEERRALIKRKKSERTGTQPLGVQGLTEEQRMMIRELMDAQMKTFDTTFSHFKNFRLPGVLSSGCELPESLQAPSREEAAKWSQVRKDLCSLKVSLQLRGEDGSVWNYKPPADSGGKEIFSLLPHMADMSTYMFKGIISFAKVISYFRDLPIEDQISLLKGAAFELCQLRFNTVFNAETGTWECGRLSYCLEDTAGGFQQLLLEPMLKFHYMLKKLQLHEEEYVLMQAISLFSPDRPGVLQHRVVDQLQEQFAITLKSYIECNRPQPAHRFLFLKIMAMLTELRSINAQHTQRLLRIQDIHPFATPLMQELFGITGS
To be noted: 10 μM.
Method: (§1) The activity of the new rifamycins is expressed as a ratio between luciferase activity in cells treated with the tested substance and that of the cells treated with DMSO. The viability and morphology of the cells are analyzed by optical microscopy.

Data set [2] concerns the target T1, human receptor PXR. The data set can be described thus: activation of the PXR receptor: CYP3A4 luciferase reporter induction in cell line DPX2. To be noted: for Induction above DMSO: ratio of luciferase activity to DMSO-treated cells; for Mean RLU: cell line DPX2P29.
Method: as §1
For data set [3], the system named is cell line DPX2. Conditions: human, 10 μM.
Method: as §1
Data set [4] concerns Micrococcus luteus ATCC 10240. The data set can be described thus: plate diffusion method, antibacterial activity and MIC. It counts as cell-based. As for the experimental part: To verify antibacterial activity, the plate diffusion method is used as described in the pharmacopeia: • A quantity of the sample is weighed and slowly dissolved in 25 ml of methanol R • A quantity of 0.05 M phosphate buffer at pH 7.0 is added so as to obtain the following concentrations: 50 μg/ml, 20 μg/ml, 10 μg/ml and 5 μg/ml • Plates were prepared with appropriate culture medium (agar thickness approximately 2-5 mm) inoculated with a suspension of Micrococcus luteus ATCC 10240, Staphylococcus aureus ATCC 6538 and Escherichia coli ATCC 8739. • 0.1 ml of the different concentrations of each sample were dispensed into the wells formed in the agar plates • The plates were held for 1-2 hours at ambient temperature to allow diffusion of the sample and then incubated at 35-39° C. for not less than 18 hours. • The diameters of the inhibition halos of the compounds were measured with a gauge and compared with those of the reference substance, the results being expressed as percentages.

For data set [5], the system named is cell line DPX2. Description: viability and morphology of the cells by optical microscopy.
Method: as §1
Where [6] appears, read: Table B, 5 μg/ml, compared with standard rifampicin.
[7] abbreviates: Table B, 10 μg/ml, compared with standard rifampicin.
Where [8] appears, read: Table B, 20 μg/ml, compared with standard rifampicin.
[9] abbreviates: Table B, 50 μg/ml, compared with standard rifampicin.
The mark [10] stands for this setting: Table A, 5 μg/ml, inhibition halo vs reference standard (rifamycin S for SX1, rifampicin for SX4 and SX5).
[11] abbreviates: Table A, 10 μg/ml, inhibition halo vs reference standard (rifamycin S for SX1, rifampicin for SX4 and SX5).
[12] abbreviates: Table A, 50 μg/ml, inhibition halo vs reference standard (rifamycin S for SX1, rifampicin for SX4 and SX5).

As for `CC[C@H](C)C(=O)O[C@H]1CCC=C2C=C[C@H](C)[C@H](CC[C@@H]3C[C@@H](O)CC(=O)O3)[C@H]21` [Mevastafin, Mevastatin], the “Mean RLU” value in data set [1] was 758 RLU. Besides, in data set [2] (10 μM), the “Induction above DMSO” value stood at 3.4. Also, in data set [3], the “Cell appearance**: cell confluence (%)” value was 30% and the “Cell appearance**: morphology” value is “MCM”.
`COC1CCOC2(C)Oc3c(C)c(O)c4c(O)c(c(C=NN5CCN(C(C)C)CC5)c(O)c4c3C2=O)NC(=O)C(C)CCCC(C)C(O)C(C)C(O)C(C)C(OC(C)=O)C1C` (centres unmarked) [Example 15, 3-(4′-isopropyl-1′-piperazinyl-iminomethyl)-16,17,18,19,28,29-hexahydrorifamycin SV]: the “MIC (Minimum Inhibitory Concentration)” value in data set [4] (Table B) was over 50 µg/mL. The percentage antibacterial activity in data set [4] (setting [6]), in data set [4] (setting [7]), in data set [4] (setting [8]) and in data set [4] (setting [9]) was 0% in each case.
In the case of `CCN1CCN(N=Cc2c3c(O)c4c(O)c(C)c5c(c4c2O)C(=O)C(C)(OCCC(OC)C(C)C(OC(C)=O)C(C)C(O)C(C)C(O)C(C)CCCC(C)C(=O)N3)O5)CC1` (centres unmarked) [Example 6, 3-(4′-ethyl-1′-piperazinyl-iminomethyl)-16,17,18,19,28,29-hexahydrorifamycin SV], the percentage antibacterial activity in data set [4] (setting [6]) is given as 0%; in data set [4] (setting [7]) it was 0%; in data set [4] (setting [8]) it was 0%; in data set [4] (setting [9]), 39%.
As for `COC1CCOC2(C)Oc3c(C)c(O)c4c(O)c(c(C=NN5CCN(C)CC5)c(O)c4c3C2=O)NC(=O)C(C)CCCC(C)C2OC(C)(C)OC(C2C)C(C)C(OC(C)=O)C1C` (centres unmarked) [Example 3, 3-(4′-methyl-1′-piperazinyl-iminomethyl)-21,23-O-isopropylidene-16,17,18,19,28,29-hexahydrorifamycin SV], the “Cell appearance**: cell confluence (%)” value in data set [5] (5 μM) is reported as 30%; in data set [5] (10 μM), 30%; in data set [5] (20 μM), 20%; in data set [5] (40 μM) it was 20%. Besides, the “Cell appearance**: morphology” value in data set [5] (5 μM), in data set [5] (10 μM) and in data set [5] (20 μM) was “MCM” in each case. In data set [4] (Table A), the “MIC (Minimum Inhibitory Concentration)” value is over 50 µg/mL. Moreover, the percentage antibacterial activity in data set [4] (setting [10]), in data set [4] (setting [11]) and in data set [4] (setting [12]) was 0% throughout. Further, the “Mean RLU” value is given as 8052 RLU in data set [2] (5 μM), 10848 RLU in data set [2] (10 μM), 7125 RLU in data set [2] (20 μM) and 4243 RLU in data set [2] (40 μM). Also, the “Induction above DMSO” value is reported as 36.1 in data set [2] (5 μM), 48.6 in data set [2] (10 μM), 32.0 in data set [2] (20 μM) and 19.0 in data set [2] (40 μM).
On to `CCOCCN1CCN(N=Cc2c3c(O)c4c(O)c(C)c5c(c4c2O)C(=O)C(C)(OCCC(OC)C(C)C(OC(C)=O)C(C)C(O)C(C)C(O)C(C)CCCC(C)C(=O)N3)O5)CC1` (centres unmarked) [Example 12, 3-[4′-(2-ethoxyethyl)-1′-piperazinyl-iminomethyl]-16,17,18,19,28,29-hexahydrorifamycin SV], for which, in data set [4] (Table B), the “MIC (Minimum Inhibitory Concentration)” value was over 50 µg/mL. Moreover, the percentage antibacterial activity in data set [4] (setting [6]), in data set [4] (setting [7]), in data set [4] (setting [8]) and in data set [4] (setting [9]) was 0% each time.
With `CO[C@H]1/C=C/O[C@@]2(C)Oc3c(C)c(O)c4c(c3C2=O)C(=O)C(N2CCOCC2)=C(NC(=O)/C(C)=C\C=C\[C@H](C)[C@@H]2OC(C)(C)O[C@@H]([C@@H](C)[C@H](OC(C)=O)[C@@H]1C)[C@@H]2C)C4=O` [Example 23, 3-morpholine-21,23 O-isopropylidenerifamycin S, reference compound], the “Cell appearance**: cell confluence (%)” value amounted to 30% in data set [5] (5 μM), 30% in data set [5] (10 μM), 10% in data set [5] (20 μM) and 0% in data set [5] (40 μM). The “Cell appearance**: morphology” value in data set [5] (5 μM) was “MCM”. Also, the “MIC (Minimum Inhibitory Concentration)” value in data set [4] (Table A) is under 5 µg/mL. For the same molecule, the percentage antibacterial activity is recorded as 39% in data set [4] (setting [10]), 40% in data set [4] (setting [11]) and 69% in data set [4] (setting [12]). Besides, the “Mean RLU” value in data set [2] (5 μM) came to 6537 RLU; in data set [2] (10 μM), 7869 RLU; in data set [2] (20 μM), 4738 RLU; in data set [2] (40 μM), 396 RLU. In addition, the “Induction above DMSO” value in data set [2] (5 μM) is 29.3; in data set [2] (10 μM), 35.3; in data set [2] (20 μM), 21.2; in data set [2] (40 μM), 1.8. Moreover, in data set [2] (compared with the compounds of the invention), the “PXR activation, comparison in words” value is “decidedly less active”.
As for `COC1CCOC2(C)Oc3c(C)c(O)c4c(O)c(c(C=NN5CCN(C)CC5)c(O)c4c3C2=O)NC(=O)C(C)CCCC(C)C(O)C(C)C(O)C(C)C(OC(C)=O)C1C` (centres unmarked) [Example 1, 3-(4′-methyl-1′-piperazinyl-iminomethyl)-16,17,18,19,28,29-hexahydrorifamycin SV], the “Cell appearance**: cell confluence (%)” value in data set [5] (5 μM), in data set [5] (10 μM), in data set [5] (20 μM) and in data set [5] (40 μM) was 30% throughout. Further, the “Cell appearance**: morphology” value in data set [5] (5 μM), in data set [5] (10 μM), in data set [5] (20 μM) and in data set [5] (40 μM) was “MCM” each time. In addition, the percentage antibacterial activity is given as 0% in data set [4] (setting [10]), 0% in data set [4] (setting [11]) and 42% in data set [4] (setting [12]). Further, the “Mean RLU” value in data set [2] (5 μM) is reported as 8698 RLU; in data set [2] (10 μM), 12069 RLU; in data set [2] (20 μM), 12918 RLU; in data set [2] (40 μM) it was 14636 RLU. Also, the “Induction above DMSO” value in data set [2] (5 μM) worked out at 39.0; in data set [2] (10 μM), 54.1; in data set [2] (20 μM) it was 57.9; in data set [2] (40 μM), 65.6.
